Measured values: US20150004110A1, “NOVEL ANTI-AGING AND DEPIGMENTING COSMETIC COMPOSITIONS” (DIVERCHIM, priority 2011, published 2015)
Like-named read-outs stand apart in the source and are kept apart here.

Key:
[1] = system: B16 melanocytes stimulated with NDP-MSH; test: Anti-melanogenesis activity: melanin synthesis in B16 melanocytes stimulated with NDP-MSH; assay type: cell-based
Protocol: The depigmenting effect was evaluated on a line of type B16 melanocytes stimulated with NDP-MSH, (natural hormone stimulating melanogenesis; Melanocyte Stimulating Hormone, [Nle, DPhe]-α-MSH). Melanin synthesis was evaluated.
The anti-melanogenesis activity of the compounds in solution in DMSO was evaluated by measuring melanin synthesis in a model of B16 melanocytes stimulated with a stable derivative of α-MSH (natural melanogenesis stimulating hormone): NDP-MSH.
(§1) The melanocytes were seeded in a 96-well plate and were cultured for 24 h (37° C., 5% CO2, DMEM 1 g/L glucose without phenol red supplemented with glucose at 3 g/L, L-glutamine at 2 mM, penicillin at 50 U/mL, streptomycin at 50 μg/mL, foetal calf serum (FCS) at 10%). After incubation, the culture medium was then replaced with culture medium supplemented or not supplemented (unstimulated control) with a stable derivative of α-MSH and containing or not containing (controls) the test compounds or the reference (kojic acid at 25, 100, 400, 800 μg/mL). Each experiment was carried out with n=3, apart from the controls carried out with n=6, then the cells were incubated for 72 h. Wells without cells received in parallel the same quantities of medium supplemented or not supplemented with NDP-MSH and containing or not containing the test compounds or the reference in order to quantify the background noise associated with the presence of the compounds.
After incubation for 72 hours, the total melanin (intra- and extracellular) was quantified by measuring the absorption at 405 nm of each sample (direct reading of the culture plates) against a standard range of melanin (melanin concentrations tested from 0.78 to 100 μg/mL). The background noise, measured in the wells without cells, was subtracted from the measured values so as only to take into account the effect connected with melanin production, without taking into account the possible interference connected with the presence of the compounds. The results were expressed as percentage of melanin relative to the control as well as percentage inhibition.
The operating conditions are the same as in Example 12.

B16 melanocytes = test: Cell viability, MTT reduction test; assay type: cell-based
Protocol: as §1, with “compounds. At the end of the treatment, the cells were incubated in the presence of MTT (tetrazolium salt), the transformation of which to blue crystals of formazan is proportional to the activity of succinate dehydrogenase (mitochondrial enzyme). After dissociation of the cells, the formazan was dissolved in DMSO medium and the optical density (OD), representative of the number of living cells and of their metabolic reactivity, was measured with a microplate reader at 540 nm (VERSAmax, Molecular Devices). The operating conditions are the same as in Example 12.” for “compounds.”

[2] = Melanocyte, 30 μM, NDP-MSH stimulated B16, 72 h, Table 2, read-out: Standardized data Inhibition (%) (melanin)
[3] = Melanocyte, 100 μM, NDP-MSH stimulated B16, 72 h, Table 2, read-out: Standardized data Inhibition (%) (melanin)
[4] = 30 μM, NDP-MSH stimulated B16, 72 h, Table 2
[5] = 100 μM, NDP-MSH stimulated B16, 72 h, Table 2
[6] = Melanocyte, NDP-MSH stimulated B16, 72 h, Table 2, read-out: Standardized data Inhibition (%) (melanin)
[7] = Melanocyte, 30 μM, comparison with 2 reference molecules, Table 3, read-out: Standardized data Inhibition (%) (melanin)
[8] = Melanocyte, 100 μM, comparison with 2 reference molecules, Table 3, read-out: Standardized data Inhibition (%) (melanin)

SMILES | inhibition at 30 µM [1, 2] | inhibition at 100 µM [1, 3] | Viability (MTT) % stimulated control (B16 melanocytes; 30 μM, B16, 72 h, Table 2) | Viability (MTT) % stimulated control (B16 melanocytes; 100 μM, B16, 72 h, Table 2) | other results
Cc1ccc(OCCc2ccccc2O)cc1 [Compound 2] | 100% | 112% | 108% | 34% | –
Oc1ccccc1CCOc1ccc(Br)cc1 [Compound 3] | 110% | 112% | 96% | 0% | –
COc1ccc(OCCc2ccccc2O)cc1 [Compound 4] | – | – | 97% | 54% | Standardized data Inhibition (%) (melanin) [1, 4]: 95%; Standardized data Inhibition (%) (melanin) [1, 5]: 111%
Oc1ccccc1CCOc1ccccc1 [Compound 5] | – | – | 103% | 67% | Standardized data Inhibition (%) (melanin) [1, 4]: 49%; Standardized data Inhibition (%) (melanin) [1, 5]: 111%
Fc1ccc(OCCc2ccccc2Br)cc1 [Compound 8] | – | – | 94% | 93% | Standardized data Inhibition (%) (melanin) [1, 4]: −27%; Standardized data Inhibition (%) (melanin) [1, 5]: 50%
Fc1ccc(OCCc2ccccc2C(F)(F)F)cc1 [Compound 10] | -11% | 27% | 87% | 91% | –
Cc1cccc(CCOc2ccc(F)cc2)c1 [Compound 11] | -2% | 44% | 83% | 109% | –
COc1ccc(OCCc2ccccc2OC)cc1 [Compound 14] | -22% | 100% | 89% | 80% | –
COc1ccccc1CCOc1ccc(F)cc1 [Compound 16] | -33% | 52% | 87% | 83% | –
COc1ccccc1C1(COc2ccc(F)cc2)CC1 [Compound 18] | -21% | 105% | 80% | 75% | –
O=[N+]([O-])c1ccc(OCCc2ccccc2O)cc1 [Compound 19] | 82% | 111% | 91% | 0% | –
Oc1ccccc1CCOc1ccc(OCc2ccccc2)cc1 [Compound 20] | 115% | – | 59% | – | inhibition at 3 µM [1, 6]: 83%; inhibition at 10 µM [1, 6]: 108%; Viability (MTT) % stimulated control (B16 melanocytes; 3 μM, B16, 72 h, Table 2): 106%; Viability (MTT) % stimulated control (B16 melanocytes; 10 μM, B16, 72 h, Table 2): 84%
CC(=O)Nc1ccc(OCCc2ccccc2OC(C)=O)cc1 [Compound 22] | -3% | 61% | 97% | 86% | –
Oc1ccccc1C(O)COc1ccc(F)cc1 (stereo not drawn) [Compound 24] | -12% | 84% | 76% | 78% | –
Fc1ccc(CCOc2ccccc2OCc2ccccc2)cc1 [Compound 25] | 46% | – | 93% | – | –
Oc1ccc(OCCc2ccccc2F)cc1 [Compound 27] | 95% | – | 77% | – | –

SMILES | inhibition at 30 µM [1, 2] | inhibition at 100 µM [1, 3] | Viability (MTT) % stimulated control (B16 melanocytes; 30 μM, B16, 72 h, Table 2) | Viability (MTT) % stimulated control (B16 melanocytes; 100 μM, B16, 72 h, Table 2) | other results
CC(=O)OC[C@H]1OC(Oc2ccccc2CCOc2ccc(F)cc2)[C@H](OC(C)=O)[C@@H](OC(C)=O)[C@@H]1OC(C)=O (stereo partly drawn) [Compound 30] | 13% | – | 88% | – | –
Oc1ccccc1CCOc1ccc(Cl)cc1 [Compound 31] | 109% | – | 88% | – | inhibition at 3 µM [1, 6]: 20%; inhibition at 10 µM [1, 6]: 70%; Viability (MTT) % stimulated control (B16 melanocytes; 3 μM, B16, 72 h, Table 2): 91%; Viability (MTT) % stimulated control (B16 melanocytes; 10 μM, B16, 72 h, Table 2): 104%
CCc1ccc(OCCc2ccccc2O)cc1 [Compound 35] | 112% | – | 88% | – | inhibition at 3 µM [1, 6]: 54%; inhibition at 10 µM [1, 6]: 92%; Viability (MTT) % stimulated control (B16 melanocytes; 3 μM, B16, 72 h, Table 2): 105%; Viability (MTT) % stimulated control (B16 melanocytes; 10 μM, B16, 72 h, Table 2): 97%
CC(C)c1ccc(OCCc2ccccc2O)cc1 [Compound 39] | 119% | – | 86% | – | inhibition at 3 µM [1, 6]: 70%; inhibition at 10 µM [1, 6]: 111%; Viability (MTT) % stimulated control (B16 melanocytes; 3 μM, B16, 72 h, Table 2): 119%; Viability (MTT) % stimulated control (B16 melanocytes; 10 μM, B16, 72 h, Table 2): 101%
CC(C)c1ccc(OCC(=O)c2ccccc2O)cc1 [Compound 40] | 58% | – | 90% | – | inhibition at 10 µM [1, 6]: 5%; Viability (MTT) % stimulated control (B16 melanocytes; 10 μM, B16, 72 h, Table 2): 102%
CCC(C)(C)c1ccc(OCCc2ccccc2O)cc1 [Compound 43] | 120% | – | 9% | – | inhibition at 3 µM [1, 6]: 88%; inhibition at 10 µM [1, 6]: 119%; Viability (MTT) % stimulated control (B16 melanocytes; 3 μM, B16, 72 h, Table 2): 116%; Viability (MTT) % stimulated control (B16 melanocytes; 10 μM, B16, 72 h, Table 2): 90%
CCC(C)(C)c1ccc(OCC(=O)c2ccccc2O)cc1 [Compound 44] | 117% | – | 80% | – | inhibition at 10 µM [1, 6]: 24%; Viability (MTT) % stimulated control (B16 melanocytes; 10 μM, B16, 72 h, Table 2): 89%
CC(C)(C)c1ccc(OCCc2ccccc2O)cc1 [Compound 47] | 116% | – | 18% | – | inhibition at 3 µM [1, 6]: 75%; inhibition at 10 µM [1, 6]: 111%; Viability (MTT) % stimulated control (B16 melanocytes; 3 μM, B16, 72 h, Table 2): 116%; Viability (MTT) % stimulated control (B16 melanocytes; 10 μM, B16, 72 h, Table 2): 89%
CCOc1ccc(OCC(O)c2ccccc2O)cc1 (stereo not drawn) [Compound 57] | 47% | – | 97% | – | –
COc1ccccc1OCC(O)c1ccccc1O (stereo not drawn) [Compound 125] | 13% | – | 90% | – | –
CC(=O)O[C@@H]1[C@@H](OC(C)=O)[C@@H](OC(C)=O)C(Oc2ccccc2CCOc2ccc(F)cc2)O[C@H]1C (stereo partly drawn) [Compound 127] | 29% | – | 90% | – | –
CCCc1ccc(OCCc2ccccc2O)cc1 [Compound 130] | 116% | – | 81% | – | inhibition at 3 µM [1, 6]: 72%; inhibition at 10 µM [1, 6]: 110%; Viability (MTT) % stimulated control (B16 melanocytes; 3 μM, B16, 72 h, Table 2): 98%; Viability (MTT) % stimulated control (B16 melanocytes; 10 μM, B16, 72 h, Table 2): 89%
O=c1cc(CO)occ1O [Kojic acid, reference compound] | – | – | – | – | inhibition at 25 µg/mL ([1]; Melanocyte, 25 μg/mL, NDP-MSH stimulated B16, 72 h, Table 2, read-out: Standardized data Inhibition (%) (melanin)): 24%; inhibition at 100 µg/mL ([1]; Melanocyte, 100 μg/mL, NDP-MSH stimulated B16, 72 h, Table 2, read-out: Standardized data Inhibition (%) (melanin)): 78%; inhibition at 400 µg/mL ([1]; Melanocyte, 400 μg/mL, NDP-MSH stimulated B16, 72 h, Table 2, read-out: Standardized data Inhibition (%) (melanin)): 90%; Viability (MTT) % stimulated control (B16 melanocytes; 25 μg/mL, B16, 72 h, Table 2): 85%; Viability (MTT) % stimulated control (B16 melanocytes; 100 μg/mL, B16, 72 h, Table 2): 76%; Viability (MTT) % stimulated control (B16 melanocytes; 400 μg/mL, B16, 72 h, Table 2): 76%
CCCCc1ccc(O)cc1O [Ref 1, 4-(2,4-dihydroxyphenyl)butane, reference compound] | – | – | – | – | inhibition at 30 µM [1, 7]: 82%; inhibition at 100 µM [1, 8]: 100%
COc1ccc(CCCc2ccc(O)cc2O)c(OC)c1C [Ref 2, 1-(2,4-dihydroxyphenyl)-3-(2,4-dimethoxy-3-methylphenyl)propane, reference compound] | – | – | – | – | inhibition at 30 µM [1, 7]: 45%; inhibition at 100 µM [1, 8]: 113%; Viability (MTT) % stimulated control (B16 melanocytes; 30 μM, comparison with 2 reference molecules, Table 3): 102%; Viability (MTT) % stimulated control (B16 melanocytes; 100 μM, comparison with 2 reference molecules, Table 3): 76%
